Patent publication US20230338541A1, “USE OF HIGH MOLECULAR WEIGHT HYALURONIC ACID AS OCULAR TRANSPORTING VEHICLE” (I.COM MEDICAL GMBH, priority 2020, published 2023)

Experiment: Pre-test: latanoprost dissolved in the 0.15% hylan A vehicle, HPLC
Type: physicochemical
Conditions: 0.15% w/v hylan A vehicle, stirred 18 hours at 40° C., 25 or 50 μg/ml added
Description: Sterile bulk solution for the production of COMFORT SHIELD® MDS eye drops (i.com medical GmbH, Munich, Germany) was used as vehicle for the preparation of prototype latanoprost bulk solution (PLBS). The vehicle contained 0.15% w/v hylan A (HA with 2.9 m^3/kg intrinsic viscosity) dissolved in phosphate buffered saline solution (8.035 g/l NaCl; 1.2 mmol/1 Na2HPO4/NaH2PO4; pH 7.4). Latanoprost was obtained from Yonsung Fine Chemicals Co. Ltd., Gyeonggi-do, Republic of Korea. PLBS was prepared by medi-pharm Laboratorium GmbH, Falkensee, Germany by dissolving 20±1 μg/ml latanoprost in the vehicle.
In a pre-test 25 μg/ml and 50 μg/ml latanoprost were added to the vehicle and the solution stirred for 18 hours at 40° C. The latanoprost content was determined by HPLC using a Hypersil BDS C18 5 μg, 150.0×4.0 mm column (VDS optilab) and a UV detector (200 nm).

CC(C)OC(=O)CCC/C=C\C[C@@H]1[C@@H](CC[C@@H](O)CCc2ccccc2)[C@H](O)C[C@@H]1O [latanoprost, Latanoprost]
latanoprost found to be dissolved in the vehicle: 20.8 µg/mL
